Earlier results as cited in paper PMC12329520 (Molecular Therapy. Nucleic Acids, 2025).

System: exon 23 of the Dmd gene
Details: CP10 conjugated to 2OMePS ASO, mdx mouse

Q: For QLFPLFR [CP10], which “exon skipping in skeletal muscle tissues and heart compared with an unconjugated ASO of the same chemistry” value is on record?
A: significant improvement in exon skipping
